Experimental data published in patent US20250073211A1, “USE OF ERGOTHIONEINE TO SUPPRESS DELETERIOUS EFFECTS OF SENESCENCE” (NANJING NUTRABUILDING BIO-TECH CO., LTD., priority 2022, published 2025).

What was measured:
HDFn cells [1] = test: Senolytic Profile Assay (cell counts and senescence markers after 3 days of acute treatment at passage 31); type: cell-based, Human; conditions: for cell counts: 3 days of treatment; for Ki67-positive population: day 9 to 12 timepoint, 0 μM: 3.4%±1.5, p<0.001; for percentage of p21 positive HDFn cells / percentage of p16 positive HDFn cells: timepoint 1 (day 0 to 3); for percentage of p21 positive HDFn cells: 0 μM: 63.1%±9.3; for percentage of p16 positive HDFn cells: 0 μM: 67.8%±4.7
Description: (§1) HDFn cells (C0045C, Thermo Scientific, US) were obtained and proliferated to passage 32 (population doubling 58) in standard DMEM proliferation medium (10% FBS) at standard culture conditions (37°° C., 20% O2, 5% CO2). At each passage, cells were cryopreserved and banked. The cells were deemed replicatively senescent at passage 32. When required, cryovial contents was thawed gradually into 5 ml pre-warmed 10% FBS media with gentle pipetting and centrifuged. The supernatant was discarded, and the cell pellet was resuspended into 10% media and cells were counted using a hemocytometer and trypan blue.
Treatment conditions tested in this assay were 0, 3, 30 and 300 μM of EGT as an acute supplementation over 3 days in standard DMEM (10% FBS). Positive controls for senolytic activity were 13 μM of Navitoclax and 600 μM of Fisetin. A 0.1% DMSO condition was introduced as a vehicle control for Fisetin. At passage 31, the HDFn cells were seeded at 10,000 cells per well in triplicate wells onto 48-well plates. After 2 days of acclimatization, cells were treated for 3 days with the conditions above. The cells were then washed with PBS and fixed with 2% PFA. The wells were filled with PBS and stored at 4° C. until immunostaining. For β-galactosidase staining, the staining solution was added onto the cells immediately after fixation and incubated at 37° C. for 24 h. The staining solution was removed, and the wells filled with PBS until imaging. This was repeated for timepoints day 0 to 3, day 6 to 9, and day 9 to 12.
(§2) The panel of senescence markers, Ki67, p16 and p21 were analyzed by immunohistochemical staining using an HRP/DAB kit (ab64264, Abcam, UK). • Antibody details • 1) Ki67—1:1000 dilution, anti-rabbit, ab92742, Abcam; • 2) p16—1:500 dilution, anti-rabbit, ab 108349, Abcam; • 3) p21—1:100 dilution, anti-rabbit, ab 109542, Abcam.
(§3) The cells were counterstained with hematoxylin.
(§4) The senescence-associated β-galactosidase solutions and staining was performed according to Dimri et al, A biomarker that identifies senescent human cells in culture and in aging skin in vivo, Proc. Natl. Acad. Sci. 1995 Sep. 26; 92 (20): 9363-9367. The cells were counterstained with Nuclear Fast Red.
(§5) All staining were imaged on an EVOS XL core microscope at 100× magnification.
(§6) The images were white balanced using a macro on ImageJ. Cells were manually counted using the cell counter plugin and recorded. Graphs and statistics were created using GraphPad Prism 5. For each dataset, a two-way ANOVA was performed with Bonferroni posthoc test against the untreated control. P-values on the graphs are shown as *p<0.05, ** p<0.01, *** p<0.001.

HDFn cells [2] = test: Senostatic Profile Assay (senescence markers Ki67, p21, p16, SAβG under chronic supplementation); type: cell-based, Human; conditions: for percentage of SAβG positive HDFn cells: untreated 9.8%±2.7
Description: as §1
Treatment conditions tested in this assay were 0, 0.5, 3.0 and 30 μM of EGT as a constant supplementation in standard DMEM (10% FBS). HDFn cells were thawed at passage 20 and seeded at 1.5×10^5 cells per flask. Three flasks per condition were seeded. Media was changed every three days. At passages 22, 24, and 26, the HDFn cells were seeded onto 48-well plates at 10,000 cells per well in triplicates per flask, and cultured in DMEM media containing 0, 0.5, 3.0, and 30 μM of EGT, respectively. The cells were proliferated until 70% confluence or for 7 days. The cells were then washed with PBS and fixed with 2% PFA, and stored at 4° C. until immunostaining. For β-galactosidase staining, the staining solution was added onto the cells immediately after fixation and incubated at 37° C. for 24 h. The staining solution was removed, and the wells filled with PBS until imaging. As a positive control for senescence phenotype, one set of wells from the untreated flasks were seeded. At 70% confluence, the cells were treated with 600 μM of hydrogen peroxide in serum-free DMEM for 2 h, then incubated with standard DMEM proliferation medium for 5 days to allow the senescence phenotype to develop. The cells were fixed and stained in the same manner as the other treatment conditions.
as §2, §3, §4, §5, §6

SMILES: O=c1c(O)c(-c2ccc(O)c(O)c2)oc2cc(O)ccc12 [FIS, Fisetin, reference compound]
- cell counts (HDFn cells [1]; passage 31, 600 μM Fisetin, positive control): dramatically decreased

SMILES: C[N+](C)(C)[C@@H](Cc1c[nH]c(=S)[nH]1)C(=O)[O-] [EGT, L-Ergothioneine]
- effect on the percentage of p16 positive HDFn cells (HDFn cells [2]; across all three passages (22, 24, 26), EGT 0.5, 3.0, 30 μM): did not robustly affect
- change of percentage of Ki67 positive HDFn cells compared with the untreated control (HDFn cells [2]; all three passages (22, 24, 26), EGT 0.5, 3.0, 30 μM constant supplementation): did not result in statistically significant changes
- senostatic effect (HDFn cells [2]; low chronic doses (0.5-30 μM) in HDFn cells): can confer senostatic effects
- reduction of the percentage of p21 positive HDFn cells (HDFn cells [2]; passage 22, 0.5 μM EGT, p<0.001): 16.5%
- percentage of p21 positive HDFn cells (HDFn cells [2]; passage 22, 0.5 μM EGT, untreated 82.5%±2.3, mean±SEM): 66.0%±2.4
- reduction of the percentage of p21 positive HDFn cells (HDFn cells [2]; passage 22, 3 μM EGT, p<0.001): 20.1%
- reduction of the percentage of p21 positive HDFn cells (HDFn cells [2]; passage 22, 30 μM EGT, p<0.001): 21.8%
- reduction in p16-positive cells (HDFn cells [2]; passage 24, 0.5 μM EGT, p<0.001): 15%
- change of percentage of p21 positive HDFn cells (HDFn cells [2]; passage 24 or 26, EGT 0.5, 3.0, 30 μM): did not result in statistically significant changes
- percentage of SAβG positive HDFn cells (HDFn cells [2]; passage 26, 0.5 μM EGT, p<0.001): 4.8%±5.7
- percentage of SAβG positive HDFn cells (HDFn cells [2]; passage 26, 3.0 μM EGT, p<0.001): 3.5%±2.0
- percentage of SAβG positive HDFn cells (HDFn cells [2]; passage 26, 30 μM EGT, p<0.001): 5.0%±2.9
- mean SAβG reduction (HDFn cells [2]; passage 26, mean over 0.5, 3.0 and 30 μM EGT): 50%
- senolytic activity (HDFn cells [1]; HDFn cells at passage 31, at up to 300 μM): not senolytic
- Ki67-positive population (HDFn cells [1]; passage 31, 30 μM EGT): 9.2%±3.8
- percentage of p21 positive HDFn cells (HDFn cells [1]; passage 31, 30 μM EGT): 29.1%±7.4
- percentage of p16 positive HDFn cells (HDFn cells [1]; passage 31, 30 μM EGT): 7.0%±2.8
- Ki67-positive population (HDFn cells [1]; passage 31, 300 μM EGT): 11.4%±2.6
- percentage of p21 positive HDFn cells (HDFn cells [1]; passage 31, 300 μM EGT): 27.0%±2.0
- percentage of p16 positive HDFn cells (HDFn cells [1]; passage 31, 300 μM EGT): 11.7%±5.9
- cell counts (HDFn cells [1]; passage 31, 3, 30 and 300 μM EGT vs 0 μM): did not change much
- effect on the percentage of SAβG positive HDFn cells (HDFn cells [1]; passage 31, EGT 3, 30, 300 μM, any timepoint): no statistically significant effect

SMILES: OO [hydrogen peroxide, reference compound]
- SAβG levels (senescence-associated β-galactosidase positive HDFn cells) (HDFn cells [2]; 600 μM hydrogen peroxide for 2 h, then 5 days, positive control for senescence phenotype): remained low

SMILES: CC1(C)CCC(c2ccc(Cl)cc2)=C(CN2CCN(c3ccc(C(=O)NS(=O)(=O)c4ccc(N[C@H](CCN5CCOCC5)CSc5ccccc5)c(S(=O)(=O)C(F)(F)F)c4)cc3)CC2)C1 [NAV, Navitoclax, reference compound]
- cell counts (HDFn cells [1]; passage 31, 13 μM Navitoclax, positive control): dramatically decreased
